These results are taken from PMC4666646, “The Structure of the RNA-Dependent RNA Polymerase of a Permutotetravirus Suggests a Link between Primer-Dependent and Primer-Independent Polymerases” (PLoS Pathogens, 2015).

The term stoichiometry N denotes a count of units in the complex or per binding partner.

Data set [1] concerns the target T1, TaVpol (TaV RdRP domain) (Thosea asigna virus, UniProt Q6A562). The following applies: MnCl2, ssRNA template 5'-[…]; active site of molecule B, base stacked on Y611 and F613 of loop λ6.
In data set [2] the target is T1, TaVpol (TaV RdRP domain). Description: X-ray crystal structure, […] Å. The class given is binding. Set-up: RdRP domain, first 674 residues of replicase ORF1 (1257 residues), 75 kDa fragment released by proteolysis in Hi5 insect cells; N-terminal 6xHis tag and TEV site, tag cut for biochemical assays; dimer. The settings on record: MgCl2; triphosphate in rNTP tunnel (nucleoside disordered); second site in thumb subdomain (M556, T560, D563, E601).

Data set [3] concerns the target T1, TaVpol (TaV RdRP domain). As to the kind of experiment: X-ray crystal structure, […] Å. The class given is binding. Set-up: RdRP domain, first 674 residues of replicase ORF1 (1257 residues), 75 kDa fragment released by proteolysis in Hi5 insect cells; N-terminal 6xHis tag and TEV site, tag cut for biochemical assays; dimer. The following applies: MgCl2; triphosphate in rNTP tunnel (nucleoside disordered); second site in thumb subdomain (M556, T560, D563, E601). The source holds these as a separate data set.

The target in data set [4] is TaVpol (RdRP domain of Thosea asigna virus ORF1, first 674 residues) (Thosea asigna virus). As to the kind of experiment: SEC; analytic chromatography on a calibrated Superdex 200 5/150 column of purified proteins; for TaVpol also the final purification step on Superdex 200 HR 10/300 (50 mM MES pH 6.0, 500 mM NaCl, 10% glycerol, 5 mM DTT).
The target in data set [5] is T2, TaVpol (RdRP-containing N-terminal fragment of ORF1) (Thosea asigna virus, UniProt Q6A562 1-674). Description: X-ray crystallography; ATP, CTP, 5 mM MnCl2; 3.5 A; RNA density weak, only phosphate peaks in template channel, RNA not built; Complex formation: 1 mg/ml TaVpol, 1:1.5 protein:RNA, 50 mM MES pH 6.0, 200 mM NaCl, 10% glycerol, 5 mM DTT, 30 C 30 min; crystals at 20 C in 12% PEG 8K, 750 mM Li2SO4. The following applies: protein: recombinant; tags: N-terminal 6xHis with TEV site (tag not removed for RNA complexes as far as stated); chain copies: 2; single strand.

For data set [6], the target named is T2, TaVpol (RdRP-containing N-terminal …). Description: X-ray crystallography; Complex formation: 1 mg/ml TaVpol, 1:1.5 protein:RNA, 50 mM MES pH 6.0, 200 mM NaCl, 10% glycerol, 5 mM DTT, 30 C 30 min; crystals at 20 C in 12% PEG 8K, 750 mM Li2SO4. The settings on record: protein: recombinant; tags: N-terminal 6xHis with TEV site (tag not removed for RNA complexes as far as stated); chain copies: 2; single strand.

On to `Nc1ncnc2c1ncn2[C@@H]1O[C@H](COP(=O)(O)OP(=O)(O)OP(=O)(O)O)[C@@H](O)[C@H]1O` [ATP], for which the “X-ray crystal structure, 3.5 Å” value on TaVpol (TaV RdRP domain) [1] is given as “This density, was interpreted as the presence of a bound ATP molecule”.
Regarding `Nc1ccn([C@@H]2O[C@H](COP(=O)(O)OP(=O)(O)OP(=O)(O)O)[C@@H](O)[C@H]2O)c(=O)n1` [CTP], the “X-ray crystal structure, 2.25 Å” value on TaVpol (TaV RdRP domain) [2] is “TaVpol-GTP and TaVpol-CTP co-crystals were also obtained in presence of MgCl2”.
For `Nc1nc2c(ncn2[C@@H]2O[C@H](COP(=O)(O)OP(=O)(O)OP(=O)(O)O)[C@@H](O)[C@H]2O)c(=O)[nH]1` [GTP], the “X-ray crystal structure, 2.3 Å” value on TaVpol (TaV RdRP domain) [3] is “TaVpol-GTP and TaVpol-CTP co-crystals were also obtained in presence of MgCl2”.
The molecule “TaVpol (RdRP domain of Thosea asigna virus ORF1, first 674 residues) (domain or fragment)” gave a stoichiometry N in data set [4] of 2.
On to CCCAUUCGACUCCUG (ssRNA) [15-nt ssRNA template], for which the binding result in data set [5] is on record as “binds”.
For the molecule GUAUACUACACCCAUUCGACUCCUG (ssRNA) [25-nt ssRNA template], in data set [6], the binding result is reported as “binds”.
